Values after ≈ are worked out from the molar mass of the structure shown. Where a name gives a salt, the structure may show the parent alone.
How the values were obtained:
[1] = test system: platelet agglutination (PRP, plasma rich in platelet); assay: Platelet-agglutination inhibition test (rat PRP, adenosine phosphate, aggregometer); assay type: cell-based, Wistar-strain male rats; conditions: 1 min, concentration in terms of prostaglandin I2 reducing maximum agglutination rate by 50% relative to control, 1 min at 37° C., 1 mM adenosine phosphate, read-out: ED50 (the source's name)
Description: (§1) Wistar-strain male rats weighing 150 to 200 g were used in the experiment.
(§2) Blood samples were collected from the heart of the animal without anasthesia by the use of a syringe, in which 3.3% sodium citrate solution had been placed beforehand, in such a way that the volume ratio of the sodium citrate solution to the collected blood was 1:9. The collected blood was then quickly centrifuged at 170 G at room temperature to obtain plasma rich in platelet (hereinafter referred to as PRP).
Then, the compounds 1, 2 and 3 as well as sodium salt of prostaglandin I2 were respectively dissolved in ethanol to a concentration of 1 mg/ml in terms of prostaglandin I2, and thereafter diluted with physiological saline to form solutions of various concentrations.
The platelet-agglutination inhibition test was carried out in the following manner.
The above-mentioned PRP (500 μl) and the above solution 50 μl) containing the drug tested were incubated at 37° C. for one minute in an aggregometer cuvette; then 1 mM adenosine phosphate solution (50 μl) was added to the mixture to obtain an agglutination curve on the instrument and determine the maximum agglutination rate. A mixture of 500 μl of PRP, 50 μl of physiological saline and 50 μl of 1 mM adenosine phosphate solution was used as the control to obtain similarly an agglutination curve.
The concentration (ED50) in terms of prostaglandin I2 of each of the drugs to be tested, at which the solution containing the drug reduces the percentage of the maximum agglutination rate by 50% relative to that of the control taken as 100, was calculated.

[2] = test system: platelet agglutination (PRP, plasma rich in platelet); assay: Change of agglutination-inhibition rate with incubation time, fat emulsions (evaluated indirectly via c-AMP content in the platelets); assay type: cell-based, Wistar-strain male rats; design: concentration or dose not given beside the values; conditions: compounds in fat emulsion, sodium salt of prostaglandin I2 in aq. solution; for agglutination-inhibition rate, incubation time 5 minutes: incubation 5 minutes; for agglutination-inhibition rate, incubation time 20 minutes: incubation 20 minutes; for agglutination-inhibition rate, incubation time 60 minutes: incubation 60 minutes
Description: as §1, §2
Separately, by using fat emulsions prepared as in Example 3 and extending the incubation time to 5, 20 and 60 minutes, the changes in agglutination-inhibition rate were observed. Each fat emulsion was prepared to contain 1 mg in terms of prostaglandin I2 of a test compound. It was incubated with PRP for a predetermined time; the platelets were then washed; and the content of c-AMP in the platelets was determined, thus to evaluate indirectly the inhibitory action on platelet agglutination. A physiological saline solution of sodium salt of prostaglandin I2 was used as the control.

[3] = test system: platelet agglutination (PRP, plasma rich in platelet); assay: as above; assay type: cell-based, Wistar-strain male rats; design: concentration or dose not given beside the values; conditions: incubation 1 minute; compounds in fat emulsion, sodium salt of prostaglandin I2 in aq. solution
artery = conditions: cited from earlier work
[4] = test system: human platelet agglutination; conditions: cited from earlier work
[5] = cited from earlier work
other smooth muscles = conditions: cited from earlier work
platelet agglutination = conditions: cited from earlier work

SMILES | IC50 [1] [µg/mL] | agglutination-inhibition rate, incubation time 5 minutes [2] [%] | agglutination-inhibition rate, incubation time 20 minutes [2] [%] | agglutination-inhibition rate, incubation time 60 minutes [2] [%] | agglutination-inhibition rate, incubation time 1 minute [3] [%] | artery-relaxative or artery-contractive action (artery) | suppression of human platelet agglutination action induced by arachidonic acid [4] | water solubility [5] | relaxation of other smooth muscles (other smooth muscles) | platelet-agglutination action (platelet agglutination)
CCCCCC(O)C=CC1C(O)CC2OC(=CCCCC(=O)OCC(=O)OCCCC)CC21 (centres unmarked) [Compound 1, butoxycarbonylmethyl prostaglandin I2 ester] | 4.6 (≈ 9.86 µM) | 11 | 7 | 3 | 13 | – | – | – | – | –
CCCCCC(O)C=CC1C(O)CC2OC(=CCCCC(=O)OCOC(=O)C(C)(C)C)CC21 (centres unmarked) [Compound 2, Pivaloyloxymethyl prostaglandin I2 ester] | 0.5 (≈ 1.07 µM) | 78 | 51 | 27 | 93 | – | – | – | – | –
CCCCCC(=O)OC(C)OC(=O)CCCC=C1CC2C(CC(O)C2C=CC(O)CCCCC)O1 (centres unmarked) [Compound 3, 1-Hexanoyloxyethyl prostaglandin I2 ester] | 0.7 (≈ 1.42 µM) | 71 | 65 | 48 | 78 | – | – | – | – | –
CCCCC[C@H](O)/C=C/[C@@H]1[C@H]2C/C(=C/CCCC(=O)O)O[C@H]2C[C@H]1O [Sodium salt of prostaglandin I2, reference compound] | 0.4 | 17 | 0 | 0 | 100 | – | – | – | – | –
CCCCC[C@H](O)/C=C/[C@@H]1[C@H]2C/C(=C/CCCC(=O)O)O[C@H]2C[C@H]1O [prostaglandin I2, (5Z,13E)-(9α, 11α, 15S)-6,9-epoxy-11,15-dihydroxyprosta-5,13-dienoic acid] | – | – | – | – | – | powerful artery-relaxative action | strongly suppresses | fairly water-soluble | does not relax other smooth muscles | –
CCCCCC(O)C=CC1OC2CC(O2)C1CC=CCCCC(=O)O (centres unmarked) [thromboxan A2] | – | – | – | – | – | artery-contractive action | – | – | – | platelet-agglutination action

Source: patent US4613614A, “Prostaglandin I2 ester and fat emulsion containing the same” (The Green Cross Corporation, priority 1983, dated 1986)
